“And” between values parts separate entries of the source, which are not always exact repeats. Equal entries are not always repeated. Where two headings read alike, the source gives them in different places.
Columns and labels:
aureolysin (ALN) = target: T1, aureolysin (ALN) (Staphylococcus aureus, UniProt P81177); assay: Enzyme inhibition kinetics, fluorogenic substrate ES005; type: biochemical; conditions: for remaining activity at 100 µM: 100 µM inhibitor
T1 construct: purchased BioCentrum Ltd (Kraków, Poland)

thermolysin (TLN) = target: T2, thermolysin (TLN) (Bacillus thermoproteolyticus, UniProt P00800); assay: as above; type: biochemical; conditions: for remaining activity at 10 µM: log [H2] (M) -5; for remaining activity at 0.1 µM: log [H2] (M) -7; for remaining activity at 0.01 µM: log [H2] (M) -8; for remaining activity at 0.0001 µM: log [H2] (M) -10; for vi/v0 avg (time dependent inhibition, Supplementary Figure S8): Thermolysin, inhibitor 10 µM
T2 construct: purchased Calbiochem (San Diego, CA, USA)
How it was run: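 Initial rates were read at 37 °C (ex 320/em 405 nm) with 4.0 µM substrate, ES001 for MMP-14 (1.0 nM) and ES005 for PLN (0.5 nM), TLN (0.21 nM), ALN (1.4 nM), in pH 7.5 Hepes, 10 mM CaCl2, 0.005% Brij-35, 1.0% DMSO. Enzymes were preincubated 30 min at room temperature or not; IC50 fitted, Ki from IC50 using Km.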

pseudolysin (PLN, LasB) = target: T3, pseudolysin (PLN, LasB) (Pseudomonas aeruginosa, UniProt P14756); assay: as above; type: biochemical; conditions: for remaining activity at 100 µM: 100 µM inhibitor
T3 construct: purchased Calbiochem (San Diego, CA, USA)

MMP-14 = conditions: cited from earlier work
[1] = target: T4, APMA activated MMP-9 (MMP-9(A)) (Homo sapiens, UniProt P14780); assay: Enzyme inhibition kinetics, fluorogenic substrate ES001; type: biochemical; conditions: for remaining activity at 10 µM: 10 µM inhibitor
T4 construct: made in house; host or cells: Sf9 and High Five insect cells
How it was run: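 Recombinant full-length proMMP-9 expressed in insect cells was auto-activated with APMA and titrated with galardin. Activity at 0.05 nM enzyme was measured using 4.0 µM fluorogenic substrate ES001 in 100 µL 0.1 M Hepes pH 7.5 containing 10 mM CaCl2, 0.005% Brij-35 and 1.0% DMSO. Initial rates were followed at 37°C (excitation 320 nm, emission 405 nm) relative to inhibitor-free controls.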

[2] = target: T5, Mag-Trypsin activated MMP-9 (MMP-9(MT)) (Homo sapiens, UniProt P14780); assay: as above; type: biochemical; conditions: for remaining activity at 100 µM: 100 µM inhibitor; for vi/v0: Mag-Trypsin activated recombinant human MMP-9, v0 = average of vi at 10-10 to 10-8 M H2
T5 construct: made in house; host or cells: Sf9 and High Five insect cells

MMP-9 = conditions: previously reported; cited from earlier work
[3] = target: T6, human MT1-MMP/MMP-14 (catalytic domain) (Homo sapiens, UniProt P50281); assay: Enzyme inhibition kinetics, fluorogenic substrate ES001; type: biochemical; conditions: for remaining activity at 10 µM: 10 µM inhibitor
T6 construct: human MT1-MMP/MMP-14 (catalytic domain); purchased Calbiochem (San Diego, CA, USA)

[4] = TLN, log [H2] (M) -4, replicates
[5] = TLN, replicates, read-out: vi/v0 before correction of kurve
[6] = TLN, replicates, read-out: vi/v0 corrected (v0 is the average of log -10 to log -7)

T2 sequence (P00800 233-548): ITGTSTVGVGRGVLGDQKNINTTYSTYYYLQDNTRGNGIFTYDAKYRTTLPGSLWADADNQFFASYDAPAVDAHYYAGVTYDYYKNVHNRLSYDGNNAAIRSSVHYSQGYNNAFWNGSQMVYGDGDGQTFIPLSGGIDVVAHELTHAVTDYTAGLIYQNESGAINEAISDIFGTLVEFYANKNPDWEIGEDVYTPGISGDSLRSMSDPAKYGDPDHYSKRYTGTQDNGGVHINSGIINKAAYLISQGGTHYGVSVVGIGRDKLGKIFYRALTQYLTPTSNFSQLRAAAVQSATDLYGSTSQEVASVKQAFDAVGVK
T3 sequence (P14756 198-498): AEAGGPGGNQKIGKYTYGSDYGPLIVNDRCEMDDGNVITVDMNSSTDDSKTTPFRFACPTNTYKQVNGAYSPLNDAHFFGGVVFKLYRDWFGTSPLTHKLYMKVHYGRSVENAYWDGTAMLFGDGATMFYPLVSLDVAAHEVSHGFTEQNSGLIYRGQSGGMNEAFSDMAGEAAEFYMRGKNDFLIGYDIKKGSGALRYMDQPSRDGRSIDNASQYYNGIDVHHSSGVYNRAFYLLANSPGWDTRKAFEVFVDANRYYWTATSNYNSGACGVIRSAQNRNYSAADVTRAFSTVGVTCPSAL
T4 sequence (P14780 107-707 limits assumed): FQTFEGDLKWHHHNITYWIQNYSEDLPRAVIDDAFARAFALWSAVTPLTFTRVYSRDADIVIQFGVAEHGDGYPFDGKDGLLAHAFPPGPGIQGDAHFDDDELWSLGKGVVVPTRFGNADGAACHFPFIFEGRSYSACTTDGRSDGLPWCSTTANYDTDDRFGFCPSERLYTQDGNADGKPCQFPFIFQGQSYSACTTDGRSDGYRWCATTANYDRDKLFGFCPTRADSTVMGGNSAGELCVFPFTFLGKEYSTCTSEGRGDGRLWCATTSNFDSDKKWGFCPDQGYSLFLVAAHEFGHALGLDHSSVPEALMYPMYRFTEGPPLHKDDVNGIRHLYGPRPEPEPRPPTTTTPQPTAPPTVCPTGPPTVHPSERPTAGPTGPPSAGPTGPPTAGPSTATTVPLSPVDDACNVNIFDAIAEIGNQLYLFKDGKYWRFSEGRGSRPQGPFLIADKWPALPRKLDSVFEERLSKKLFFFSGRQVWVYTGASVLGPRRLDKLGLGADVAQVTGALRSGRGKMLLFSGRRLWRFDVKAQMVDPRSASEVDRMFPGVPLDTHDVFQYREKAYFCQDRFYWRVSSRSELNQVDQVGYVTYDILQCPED
T5 sequence (P14780 107-707 limits assumed): as above
T1 sequence (P81177 209-509): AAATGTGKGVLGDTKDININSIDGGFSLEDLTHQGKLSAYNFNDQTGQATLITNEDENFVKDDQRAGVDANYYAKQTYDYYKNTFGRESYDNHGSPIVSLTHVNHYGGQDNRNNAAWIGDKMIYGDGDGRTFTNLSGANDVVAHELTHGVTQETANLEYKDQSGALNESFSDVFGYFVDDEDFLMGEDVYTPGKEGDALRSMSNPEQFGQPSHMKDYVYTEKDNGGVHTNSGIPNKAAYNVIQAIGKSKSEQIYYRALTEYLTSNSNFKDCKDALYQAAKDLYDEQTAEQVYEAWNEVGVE

NC(=O)C(Cc1c[nH]c2ccccc12)NC(=O)C(CCCc1ccccc1)CP(=O)(O)C(Cc1ccccc1)NC(=O)OCc1ccccc1 (centres unmarked) [H-2]
Ki (aureolysin (ALN)): 80 µM | remaining activity at 100 µM (aureolysin (ALN); 0.25 h, read-out: vi/v0 (single replicate), Aureolysin, 15 min pre incubation): 45.5% | remaining activity at 100 µM (aureolysin (ALN); 0.25 h, read-out: vi/v0 avg, Aureolysin, 15 min pre incubation): 41.5% | remaining activity at 100 µM (aureolysin (ALN); 0.5 h, read-out: vi/v0 (single replicate), Aureolysin, 30 min pre incubation): 39.1% | remaining activity at 100 µM (aureolysin (ALN); 0.5 h, read-out: vi/v0 avg, Aureolysin, 30 min pre incubation): 39.4% | inhibitory effect on enzymatic activity (aureolysin (ALN); ALN, 100 μM compound, in words): strong inhibition | vi/v0 Av (bar diagram figure 7) (aureolysin (ALN); Aureolysin (ALN), inhibitor 100 μM, average over 0, 15, 30 min preincubation): 0.4117 | vi/v0 (relative enzyme activity with inhibitor), single determinations (aureolysin (ALN); Aureolysin (ALN), inhibitor 100 μM, preincubation 0 min): 0.4244 and 0.4426 and 0.4113 and 0.3677 | vi/v0 (relative enzyme activity with inhibitor), single determinations (aureolysin (ALN); Aureolysin (ALN), inhibitor 100 μM, preincubation 15 min): 0.4549 and 0.4344 and 0.3957 and 0.4144 | vi/v0 (relative enzyme activity with inhibitor), single determinations (aureolysin (ALN); Aureolysin (ALN), inhibitor 100 μM, preincubation 30 min): 0.3912 and 0.406 and 0.3859 | remaining activity at 100 µM (aureolysin (ALN); read-out: vi/v0 (single replicate), Aureolysin, no preincubation): 42.4% | remaining activity at 100 µM (aureolysin (ALN); read-out: vi/v0 avg, Aureolysin, no preincubation): 41.1% | inhibitory effect on enzymatic activity (thermolysin (TLN); TLN, 100 μM compound, in words): strong inhibition | vi/v0 before correction of kurve (thermolysin (TLN); [4]): 0 | vi/v0 corrected (v0 is the average of log -10 to log -7) (thermolysin (TLN); [4]): 0 | remaining activity at 100 µM (thermolysin (TLN); TLN, log [H2] (M) -4, replicates, read-out: vi/v0 before correction of kurve): 0% | remaining activity at 100 µM (thermolysin (TLN); TLN, log [H2] (M) -4, replicates, read-out: vi/v0 corrected (v0 is the average of log -10 to log -7)): 0% | remaining activity at 10 µM (thermolysin (TLN); [5]): 28.2% | remaining activity at 10 µM (thermolysin (TLN); [6]): 28.1% | remaining activity at 0.1 µM (thermolysin (TLN); [5]): 99.7% | remaining activity at 0.1 µM (thermolysin (TLN); [6]): 99.5% | remaining activity at 0.01 µM (thermolysin (TLN); [5]): 102% | remaining activity at 0.01 µM (thermolysin (TLN); [6]): 102% | remaining activity at 0.0001 µM (thermolysin (TLN); [5]): 95% | remaining activity at 0.0001 µM (thermolysin (TLN); [6]): 94.8% | vi/v0 Av (bar diagram figure 7) (thermolysin (TLN); Thermolysin (TLN), inhibitor 10 μM, average over 0, 15, 30 min preincubation): 0.2888 | vi/v0 (relative enzyme activity with inhibitor), single determinations (thermolysin (TLN); Thermolysin (TLN), inhibitor 10 μM, preincubation 0 min): 0.2407 and 0.2992 and 0.3158 and 0.3218 | vi/v0 avg (time dependent inhibition, Supplementary Figure S8) (thermolysin (TLN); 15 min pre incubation): 0.1753 | vi/v0 avg (time dependent inhibition, Supplementary Figure S8) (thermolysin (TLN); 30 min pre incubation): 0.294 | vi/v0 avg (time dependent inhibition, Supplementary Figure S8) (thermolysin (TLN); No preincubation): 0.2944 | Ki (thermolysin (TLN); read-out: Ki ± s.d.): 2.5 µM | Ki (pseudolysin (PLN, LasB)): 40 µM | remaining activity at 100 µM (pseudolysin (PLN, LasB); 0.25 h, read-out: vi/v0 (single replicate), Pseudolysin, 15 min pre incubation): 29.3% | remaining activity at 100 µM (pseudolysin (PLN, LasB); 0.25 h, read-out: vi/v0 avg, Pseudolysin, 15 min pre incubation): 29.7% | remaining activity at 100 µM (pseudolysin (PLN, LasB); 0.5 h, read-out: vi/v0 avg, Pseudolysin, 30 min pre incubation): 28.3% | inhibitory effect on enzymatic activity (pseudolysin (PLN, LasB); PLN, 100 μM compound, in words): strong inhibition | vi/v0 Av (bar diagram figure 7) (pseudolysin (PLN, LasB); Pseudolysin (PLN), inhibitor 100 μM, average over 0, 15, 30 min preincubation): 0.3295 | vi/v0 (relative enzyme activity with inhibitor), single determinations (pseudolysin (PLN, LasB); Pseudolysin (PLN), inhibitor 100 μM, preincubation 0 min): 0.3705 and 0.2811 and 0.5391 | vi/v0 (relative enzyme activity with inhibitor), single determinations (pseudolysin (PLN, LasB); Pseudolysin (PLN), inhibitor 100 μM, preincubation 15 min): 0.293 and 0.3019 | remaining activity at 100 µM (pseudolysin (PLN, LasB); read-out: vi/v0 avg, Pseudolysin, no preincubation): 39.7% | Ki (MMP-14; RRS enantiomer): 0.386 µM | Ki (MMP-14; RSS enantiomer): 0.09 µM | Ki (MMP-14; previously reported): 0.04 µM | remaining activity at 10 µM ([1]; 0.25 h, read-out: vi/v0 (single replicate), rMMP-9 (APMA activated), 15 min pre incubation): 2.55% | remaining activity at 10 µM ([1]; 0.25 h, read-out: vi/v0 avg, rMMP-9 (APMA activated), 15 min pre incubation): 2.28% | remaining activity at 10 µM ([1]; 0.5 h, read-out: vi/v0 (single replicate), rMMP-9 (APMA activated), 30 min pre incubation): 1.79% | remaining activity at 10 µM ([1]; 0.5 h, read-out: vi/v0 avg, rMMP-9 (APMA activated), 30 min pre incubation): 1.99% | inhibitory effect on enzymatic activity ([1]; MMP-9(A), 100 μM compound, in words): strong inhibition | Ki ([1]; MMP-9(A), substrate ES001 4.0 µM, 0.1 M Hepes pH 7.5, 37°C, 1.0% DMSO, Ki from IC50 (Eqn. 3), read-out: Ki ± s.d. (converted)): 0.56 µM | vi/v0 Av (bar diagram figure 7) ([1]; rMMP-9 (APMA activated), inhibitor 10 μM, average over 0, 15, 30 min preincubation): 0.02111 | vi/v0 (relative enzyme activity with inhibitor), single determinations ([1]; rMMP-9 (APMA activated), inhibitor 10 μM, preincubation 0 min): 0.0222 and 0.02292 and 0.01955 and 0.01797 | vi/v0 (relative enzyme activity with inhibitor), single determinations ([1]; rMMP-9 (APMA activated), inhibitor 10 μM, preincubation 15 min): 0.02548 and 0.02093 and 0.0213 and 0.0234 | vi/v0 (relative enzyme activity with inhibitor), single determinations ([1]; rMMP-9 (APMA activated), inhibitor 10 μM, preincubation 30 min): 0.01792 and 0.01966 and 0.0206 and 0.02139 | remaining activity at 10 µM ([1]; read-out: vi/v0 (single replicate), rMMP-9 (APMA activated), no preincubation): 2.22% | remaining activity at 10 µM ([1]; read-out: vi/v0 avg, rMMP-9 (APMA activated), no preincubation): 2.07% | remaining activity at 100 µM ([2]; 0.25 h, read-out: vi/v0 avg, rMMP-9 (Mag-trypsin activated), 15 min pre incubation): 1.53% | remaining activity at 100 µM ([2]; 0.5 h, read-out: vi/v0 (single replicate), rMMP-9 (Mag-trypsin activated), 30 min pre incubation): 1.66% | remaining activity at 100 µM ([2]; 0.5 h, read-out: vi/v0 avg, rMMP-9 (Mag-trypsin activated), 30 min pre incubation): 1.41% | inhibitory effect on enzymatic activity ([2]; MMP-9(MT), 100 μM compound, in words): strong inhibition | Ki ([2]; MMP-9(MT), substrate ES001 4.0 µM, 0.1 M Hepes pH 7.5, 37°C, 1.0% DMSO, Ki from IC50 (Eqn. 3), read-out: Ki ± s.d. (converted)): 0.53 µM | vi/v0 ([2]; Log [H2] (M) -4): 0.01838 and 0.0265 and 0.01864 and 0.01609 | vi/v0 ([2]; Log [H2] (M) -5): 0.1569 and 0.1424 and 0.1393 and 0.1595 | vi/v0 ([2]; Log [H2] (M) -6): 0.5598 and 0.5376 and 0.5583 and 0.5906 | vi/v0 ([2]; Log [H2] (M) -7): 0.8621 and 0.7854 and 0.9893 | vi/v0 ([2]; Log [H2] (M) -8): 0.9994 and 0.9899 and 0.9629 | vi/v0 ([2]; Log [H2] (M) -9): 0.9775 and 0.9856 and 0.9448 | vi/v0 ([2]; Log [H2] (M) -10): 1.053 and 1.045 and 1.043 | vi/v0 Av (bar diagram figure 7) ([2]; rMMP-9 (Mag-trypsin activated), inhibitor 100 μM, average over 0, 15, 30 min preincubation): 0.01565 | vi/v0 (relative enzyme activity with inhibitor), single determinations ([2]; rMMP-9 (Mag-trypsin activated), inhibitor 100 μM, preincubation 0 min): 0.01777 and 0.01586 and 0.01778 and 0.01563 | vi/v0 (relative enzyme activity with inhibitor), single determinations ([2]; rMMP-9 (Mag-trypsin activated), inhibitor 100 μM, preincubation 30 min): 0.01655 and 0.01171 | remaining activity at 100 µM ([2]; read-out: vi/v0 (single replicate), rMMP-9 (Mag-trypsin activated), no preincubation): 1.78% | remaining activity at 100 µM ([2]; read-out: vi/v0 avg, rMMP-9 (Mag-trypsin activated), no preincubation): 1.68% | Ki (MMP-9): 0.01 µM | remaining activity at 10 µM ([3]; 0.25 h, MMP-14, 15 min pre incubation, read-out: vi/v0 (single replicate)): 16.5% | remaining activity at 10 µM ([3]; 0.25 h, MMP-14, 15 min pre incubation, read-out: vi/v0 avg): 16% | remaining activity at 10 µM ([3]; 0.5 h, MMP-14, 30 min pre incubation, read-out: vi/v0 (single replicate)): 14.6% | remaining activity at 10 µM ([3]; 0.5 h, MMP-14, 30 min pre incubation, read-out: vi/v0 avg): 14.7% | remaining activity at 10 µM ([3]; MMP-14, no preincubation, read-out: vi/v0 (single replicate)): 14.5% | remaining activity at 10 µM ([3]; MMP-14, no preincubation, read-out: vi/v0 avg): 17.8% | inhibitory effect on enzymatic activity ([3]; MMP-14, 100 μM compound, in words): strong inhibition | vi/v0 Av (bar diagram figure 7) ([3]; MMP-14, inhibitor 10 μM, average over 0, 15, 30 min preincubation): 0.1603 | vi/v0 (relative enzyme activity with inhibitor), single determinations ([3]; MMP-14, inhibitor 10 μM, preincubation 0 min): 0.1454 and 0.1797 and 0.2098 | Ki ([3]; read-out: Ki ± s.d. (converted)): 3 µM

From PMC12316308, “Interactions of substrates and phosphinyl containing inhibitors with bacterial and human zinc proteases” (PLOS One, 2025)
